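Values below derive from 48-hour exposures of cells grown in 96-well plates, with endpoints linearly interpolated between the two concentrations bracketing the appropriate inhibition level. Here, GI50 denotes the concentration required for 50% inhibition of growth. TGI denotes the concentration required for complete inhibition of growth.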
Experiments:
Assay in all cases: NCI anticancer screen, dose series, 48 h
MALME-3M melanoma = system: MALME-3M melanoma
EKVX NSCLC = system: EKVX NSCLC
COLO 205 colon = system: COLO 205 colon
MOLT-4 leukemia = system: MOLT-4 leukemia
OVCAR-8 ovarian = system: OVCAR-8 ovarian
HCT-116 colon = system: HCT-116 colon
HCT-15 colon = system: HCT-15 colon
OVCAR-4 ovarian = system: OVCAR-4 ovarian
OVCAR-5 ovarian = system: OVCAR-5 ovarian
A549 NSCLC = system: A549 NSCLC
K-562 leukemia = system: K-562 leukemia
HOP-92 NSCLC = system: HOP-92 NSCLC
UACC-257 melanoma = system: UACC-257 melanoma
NCI-H522 lung = system: NCI-H522 lung
NCI-H460 lung = system: NCI-H460 lung
NCI/ADR-RES ovarian = system: NCI/ADR-RES ovarian
RXF 393 renal = system: RXF 393 renal
HCC-2998 colon = system: HCC-2998 colon
SR leukemia = system: SR leukemia
CCRF-CEM leukemia = system: CCRF-CEM leukemia
BT-549 breast = system: BT-549 breast
SN12C renal = system: SN12C renal
SF-295 CNS = system: SF-295 CNS
DU-145 prostate = system: DU-145 prostate
HL-60(TB) leukemia = system: HL-60(TB) leukemia
UACC-62 melanoma = system: UACC-62 melanoma
NCI-H226 lung = system: NCI-H226 lung
SK-MEL-2 melanoma = system: SK-MEL-2 melanoma
SNB-19 CNS = system: SNB-19 CNS
MDA-MB-435 = system: MDA-MB-435
NCI-H23 lung = system: NCI-H23 lung
HS 578T breast = system: HS 578T breast
HT29 colon = system: HT29 colon
U251 CNS = system: U251 CNS
SK-MEL-5 melanoma = system: SK-MEL-5 melanoma
TK-10 renal = system: TK-10 renal
HOP-62 NSCLC = system: HOP-62 NSCLC
SF-539 CNS = system: SF-539 CNS
786-0 renal = system: 786-0 renal
CAKI-1 renal = system: CAKI-1 renal
SNB-75 CNS = system: SNB-75 CNS
SK-MEL-28 melanoma = system: SK-MEL-28 melanoma
LOX IMVI melanoma = system: LOX IMVI melanoma
T-47D breast = system: T-47D breast
IGROV1 ovarian = system: IGROV1 ovarian
PC-3 prostate = system: PC-3 prostate
ACHN renal = system: ACHN renal
UO-31 renal = system: UO-31 renal
MDA-MB-231 breast = system: MDA-MB-231 breast
SF-268 CNS = system: SF-268 CNS
M14 melanoma = system: M14 melanoma
MCF7 breast = system: MCF7 breast
RPMI-8226 leukemia = system: RPMI-8226 leukemia
A498 renal = system: A498 renal
SW-620 colon = system: SW-620 colon
OVCAR-3 ovarian = system: OVCAR-3 ovarian
KM12 colon = system: KM12 colon
SK-OV-3 ovarian = system: SK-OV-3 ovarian

SMILES: COc1ccc(C(O)c2cc3c(N)c(C(=O)Nc4ccc(Br)cc4)sc3nc2C)cc1 (stereo unspecified)
- GI50 (MALME-3M melanoma): 2.43 µM
- TGI (MALME-3M melanoma): 13 µM
- GI50 (EKVX NSCLC): 3.29 µM
- TGI (EKVX NSCLC): 35 µM
- GI50 (COLO 205 colon): 3.74 µM
- TGI (COLO 205 colon): 27 µM
- GI50 (MOLT-4 leukemia): 3.27 µM
- TGI (MOLT-4 leukemia): > 100 µM
- GI50 (OVCAR-8 ovarian): 3.15 µM
- TGI (OVCAR-8 ovarian): 12.9 µM
- GI50 (HCT-116 colon): 2.4 µM
- TGI (HCT-116 colon): 11.3 µM
- GI50 (HCT-15 colon): 1.57 µM
- TGI (HCT-15 colon): 13.4 µM
- GI50 (OVCAR-4 ovarian): 2.01 µM
- TGI (OVCAR-4 ovarian): 6.57 µM
- GI50 (OVCAR-5 ovarian): 3.58 µM
- TGI (OVCAR-5 ovarian): 31.9 µM
- GI50 (A549 NSCLC): 2.64 µM
- TGI (A549 NSCLC): 8.01 µM
- GI50 (K-562 leukemia): 1.13 µM
- TGI (K-562 leukemia): > 100 µM
- GI50 (HOP-92 NSCLC): 2.74 µM
- TGI (HOP-92 NSCLC): 23 µM
- GI50 (UACC-257 melanoma): 3.51 µM
- TGI (UACC-257 melanoma): 34.6 µM
- GI50 (NCI-H522 lung): 2.62 µM
- TGI (NCI-H522 lung): 16 µM
- GI50 (NCI-H460 lung): 2.16 µM
- TGI (NCI-H460 lung): 4.66 µM
- GI50 (NCI/ADR-RES ovarian): 3.38 µM
- TGI (NCI/ADR-RES ovarian): 19 µM
- GI50 (RXF 393 renal): 2.51 µM
- TGI (RXF 393 renal): 9.19 µM
- GI50 (HCC-2998 colon): 2.68 µM
- TGI (HCC-2998 colon): 10.4 µM
- GI50 (SR leukemia): 0.594 µM
- TGI (SR leukemia): > 100 µM
- GI50 (CCRF-CEM leukemia): 2.78 µM
- TGI (CCRF-CEM leukemia): > 100 µM
- GI50 (BT-549 breast): 3.02 µM
- TGI (BT-549 breast): 18.6 µM
- GI50 (SN12C renal): 3.66 µM
- TGI (SN12C renal): 17.3 µM
- GI50 (SF-295 CNS): 2.55 µM
- TGI (SF-295 CNS): 8.81 µM
- GI50 (DU-145 prostate): 2.52 µM
- TGI (DU-145 prostate): 6.18 µM
- GI50 (HL-60(TB) leukemia): 2.41 µM
- TGI (HL-60(TB) leukemia): 13.5 µM
- GI50 (UACC-62 melanoma): 2.49 µM
- TGI (UACC-62 melanoma): 29.1 µM
- GI50 (NCI-H226 lung): 2.58 µM
- TGI (NCI-H226 lung): 9.16 µM
- GI50 (SK-MEL-2 melanoma): 7.69 µM
- TGI (SK-MEL-2 melanoma): 47.1 µM
- GI50 (SNB-19 CNS): 3.7 µM
- TGI (SNB-19 CNS): 60.3 µM
- GI50 (MDA-MB-435): 0.492 µM
- TGI (MDA-MB-435): 2.76 µM
- GI50 (NCI-H23 lung): 6.11 µM
- TGI (NCI-H23 lung): 82.2 µM
- GI50 (HS 578T breast): 2.19 µM
- TGI (HS 578T breast): 5.63 µM
- GI50 (HT29 colon): 2.4 µM
- TGI (HT29 colon): 6.51 µM
- GI50 (U251 CNS): 2.5 µM
- TGI (U251 CNS): 11.2 µM
- GI50 (SK-MEL-5 melanoma): 3.16 µM
- TGI (SK-MEL-5 melanoma): 11.4 µM
- GI50 (TK-10 renal): 8.18 µM
- TGI (TK-10 renal): 34.3 µM
- GI50 (HOP-62 NSCLC): 3.02 µM
- TGI (HOP-62 NSCLC): 11 µM
- GI50 (SF-539 CNS): 2.08 µM
- TGI (SF-539 CNS): 4.98 µM
- GI50 (786-0 renal): 7.58 µM
- TGI (786-0 renal): 29.3 µM
- GI50 (CAKI-1 renal): 3.5 µM
- TGI (CAKI-1 renal): 14.2 µM
- GI50 (SNB-75 CNS): 2.18 µM
- TGI (SNB-75 CNS): 6.22 µM
- GI50 (SK-MEL-28 melanoma): 5.16 µM
- TGI (SK-MEL-28 melanoma): > 100 µM
- GI50 (LOX IMVI melanoma): 2.75 µM
- TGI (LOX IMVI melanoma): 11.6 µM
- GI50 (T-47D breast): 3.14 µM
- TGI (T-47D breast): 39.7 µM
- GI50 (IGROV1 ovarian): 3.37 µM
- TGI (IGROV1 ovarian): 26 µM
- GI50 (PC-3 prostate): 3.2 µM
- TGI (PC-3 prostate): 25 µM
- GI50 (ACHN renal): 3.93 µM
- TGI (ACHN renal): 16.4 µM
- GI50 (UO-31 renal): 4.22 µM
- TGI (UO-31 renal): 21.3 µM
- GI50 (MDA-MB-231 breast): 3.18 µM
- TGI (MDA-MB-231 breast): 16.9 µM
- GI50 (SF-268 CNS): 3.74 µM
- TGI (SF-268 CNS): 18.5 µM
- GI50 (M14 melanoma): 2.35 µM
- TGI (M14 melanoma): 20 µM
- GI50 (MCF7 breast): 1.63 µM
- TGI (MCF7 breast): 15.2 µM
- GI50 (RPMI-8226 leukemia): 2.32 µM
- TGI (RPMI-8226 leukemia): 19.7 µM
- GI50 (A498 renal): 3.54 µM
- TGI (A498 renal): 19.8 µM
- GI50 (SW-620 colon): 3.37 µM
- TGI (SW-620 colon): 25.9 µM
- GI50 (OVCAR-3 ovarian): 2.19 µM
- TGI (OVCAR-3 ovarian): 4.64 µM
- GI50 (KM12 colon): 2.45 µM
- TGI (KM12 colon): 11.1 µM
- GI50 (SK-OV-3 ovarian): 3.04 µM
- TGI (SK-OV-3 ovarian): 12.9 µM
